Laboratory results published in ChEMBL document CHEMBL5625225, “Vinylphosphonate-based cyclic dinucleotides enhance STING-mediated cancer immunotherapy” (Eur J Med Chem, 2023).

Legend:
[1] = target: T1, Stimulator of interferon genes protein (Homo sapiens, UniProt Q86WV6); test: Agonist activity at STING R232 mutant (unknown origin) expressed in digitonin -permeabilized HEK293T cells preincubated for 30 mins followed by washout and measured after 5 hrs by Bright-glo luciferase assay; format: cell-based
Target sequence in this assay (Q86WV6 whole entry, looked up, stated change not applied): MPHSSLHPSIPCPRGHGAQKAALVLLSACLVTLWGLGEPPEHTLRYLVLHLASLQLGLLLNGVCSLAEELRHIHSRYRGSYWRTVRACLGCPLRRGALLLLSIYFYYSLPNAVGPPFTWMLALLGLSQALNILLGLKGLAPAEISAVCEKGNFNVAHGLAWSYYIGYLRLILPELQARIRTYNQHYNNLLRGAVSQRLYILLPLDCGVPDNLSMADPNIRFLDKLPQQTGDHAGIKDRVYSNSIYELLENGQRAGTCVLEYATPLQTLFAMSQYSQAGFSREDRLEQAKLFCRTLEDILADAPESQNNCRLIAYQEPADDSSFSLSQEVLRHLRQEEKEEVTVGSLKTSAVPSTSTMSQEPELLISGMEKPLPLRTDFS

[2] = target: Stimulator of interferon genes protein (Homo sapiens, UniProt Q86WV6, R293Q); test: Agonist activity at STING R293Q mutant (unknown origin) expressed in digitonin -permeabilized HEK293T cells preincubated for 30 mins followed by washout and measured after 5 hrs by Bright-glo luciferase assay; format: cell-based
Chain of Stimulator of interferon genes protein (Homo sapiens, UniProt Q86WV6, R293Q) (Q86WV6 whole entry R293Q): as the sequence (Q86WV6 whole entry, looked up, stated change not applied) above, with R293Q counted along it

[3] = target: Stimulator of interferon genes protein (Homo sapiens, UniProt Q86WV6, G230A/R293Q/R71H); test: Agonist activity at STING R71H/G230A/R293Q mutant (unknown origin) expressed in digitonin -permeabilized HEK293T cells preincubated for 30 mins followed by washout and measured after 5 hrs by Bright-glo luciferase assay; format: cell-based
Chain of Stimulator of interferon genes protein (Homo sapiens, UniProt Q86WV6, G230A/R293Q/R71H) (Q86WV6 whole entry R71H/G230A/R293Q): as the sequence (Q86WV6 whole entry, looked up, stated change not applied) above, with R71H, G230A, R293Q counted along it

[4] = Agonist activity at STING R232H mutant (unknown origin) expressed in digitonin -permeabilized HEK293T cells preincubated for 30 mins followed by washout and measured after 5 hrs by Bright-glo luciferase assay; format: cell-based; settings: Homo sapiens, HEK-293T
[5] = test system: Stimulator of interferon genes protein (Homo sapiens), Q86WV6 [G230A,R293Q]; settings: filed as agonist
Chain of Stimulator of interferon genes protein (Homo sapiens), Q86WV6 [G230A,R293Q] (Q86WV6 whole entry G230A/R293Q): as the sequence (Q86WV6 whole entry, looked up, stated change not applied) above, with G230A, R293Q counted along it
Description: Binding affinity to STING G230A/R293Q mutant (unknown origin) assessed as change in melting temperature by differential scanning fluorimetry analysis

[6] = target: Stimulator of interferon genes protein (Homo sapiens, UniProt Q86WV6, G230A/R293Q); test: Agonist activity at STING G230A/R293Q mutant (unknown origin) expressed in digitonin -permeabilized HEK293T cells preincubated for 30 mins followed by washout and measured after 5 hrs by Bright-glo luciferase assay; format: cell-based
Chain of Stimulator of interferon genes protein (Homo sapiens, UniProt Q86WV6, G230A/R293Q) (Q86WV6 whole entry G230A/R293Q): as the sequence (Q86WV6 whole entry, looked up, stated change not applied) above, with G230A, R293Q counted along it

[7] = test system: Stimulator of interferon genes protein (Homo sapiens), Q86WV6 [UNDEFINED MUTATION]; settings: filed as agonist
Chain of Stimulator of interferon genes protein (Homo sapiens), Q86WV6 [UNDEFINED MUTATION] (Q86WV6 whole entry, looked up, change not shown): as the sequence (Q86WV6 whole entry, looked up, stated change not applied) above
Description: Binding affinity to STING R232 mutant (unknown origin) assessed as change in melting temperature by differential scanning fluorimetry analysis

[8] = target: T1, Stimulator of interferon genes protein; test: Agonist activity at wild type STING (unknown origin) expressed in HEK293T cells measured after 7 hrs by Bright-glo luciferase assay; format: cell-based
Target sequence in this assay (Q86WV6 whole entry): as the sequence (Q86WV6 whole entry, looked up, stated change not applied) above

[9] = target: T1, Stimulator of interferon genes protein; test: Agonist activity at wild type STING (unknown origin) expressed in HEK293T cells preincubated for 30 mins followed by washout and measured after 6.5 hrs by Bright-glo luciferase assay; format: cell-based
Target sequence in this assay (Q86WV6 whole entry): as the sequence (Q86WV6 whole entry, looked up, stated change not applied) above

[10] = Induction of cytokine production in human PBMC cells assessed as TNF-alpha level incubated for 60 mins followed by washout and measured after 15 hrs; format: functional, cell-based
[11] = Induction of cytokine production in human PBMC cells assessed as IFN-alpha level incubated for 60 mins followed by washout and measured after 15 hrs; format: functional, cell-based
[12] = Induction of cytokine production in human PBMC cells assessed as IFN-gamma level incubated for 60 mins followed by washout and measured after 15 hrs; format: functional, cell-based
[13] = Stability in human plasma assessed as half life at 5 uM measured upto 120 mins by UPLC/MS analysis; format: ADME, cell-free
[14] = Stability in mouse plasma assessed as half life at 5 uM measured upto 120 mins by UPLC/MS analysis; format: ADME, cell-free

| EC50 [1] [nM] | EC50 [2] [nM] | EC50 [3] [nM] | EC50 [4] [nM] | ΔTm [5] [°C] | EC50 [6] [nM] | ΔTm [7] [°C] | EC50 [8] [nM] | EC50 [9] [nM] | SMILES | other results |
| --- | --- | --- | --- | --- | --- | --- | --- | --- | --- | --- |
| 20 | 460 | 60 | 320 | 15.2 | 80 | 9.4 |  |  | Nc1nc2c(ncn2[C@@H]2O[C@@H]3/C=C/P(=O)(O)O[C@H]4[C@@H](F)[C@H](n5cnc6c(N)ncnc65)O[C@@H]4COP(=O)(O)O[C@H]3[C@H]2F)c(=O)[nH]1 |  |
| 500 | 8650 | 950 | 3690 | 8.8 | 950 | 3.4 |  |  | Nc1nc2c(ncn2[C@@H]2O[C@@H]3/C=C/P(=O)(O)O[C@H]4[C@@H](F)[C@H](n5cnc6c(=O)[nH]c(N)nc65)O[C@@H]4COP(=O)(O)O[C@H]3[C@H]2F)c(=O)[nH]1 |  |
| 120 | 2950 | 140 | 9500 | 11.4 | 130 | 5.2 |  |  | Nc1nc2c(ncn2[C@H]2C[C@@H]3OP(=O)(O)/C=C/[C@H]4O[C@@H](n5cnc6c(N)ncnc65)[C@H](F)[C@@H]4OP(=O)(O)OC[C@H]3O2)c(=O)[nH]1 |  |
| 750 | 6570 | 280 | > 45000 | 8.2 | 400 | 2.3 |  |  | Nc1ncnc2c1ncn2[C@@H]1O[C@@H]2COP(=O)(O)O[C@H]3C[C@H](n4cnc5c(N)ncnc54)O[C@@H]3/C=C/P(=O)(O)O[C@H]2[C@H]1F |  |
| 700 | 4150 | 350 | 25500 | 11.9 | 290 | 4.8 |  |  | Nc1nc2c(ncn2[C@@H]2O[C@@H]3COP(=O)(O)O[C@H]4C[C@H](n5cnc6c(N)ncnc65)O[C@@H]4/C=C/P(=O)(O)O[C@H]3[C@H]2F)c(=O)[nH]1 |  |
| 10800 | > 45000 | 240 | > 45000 | 4.5 | 390 | 0.9 |  |  | Nc1nc2c(ncn2[C@H]2C[C@@H]3OP(=O)(O)/C=C/[C@H]4O[C@@H](n5cnc6c(N)ncnc65)C[C@@H]4OP(=O)(O)OC[C@H]3O2)c(=O)[nH]1 |  |
| 780 | > 45000 | 440 | > 45000 | 8.6 | 210 | 1.9 |  |  | Nc1nc2c(ncn2[C@H]2C[C@@H]3OP(=O)(O)OC[C@H]4O[C@@H](n5cnc6c(N)ncnc65)C[C@@H]4OP(=O)(O)/C=C/[C@H]3O2)c(=O)[nH]1 |  |
| 280 | 1500 | 270 | > 45000 | 8.9 | 390 | 2.7 | 71700 | > 200000 | Nc1ncnc2c1ncn2[C@@H]1O[C@@H]2/C=C/P(=O)(O)O[C@H]3C[C@H](n4cnc5c(N)ncnc54)O[C@@H]3COP(=O)(O)O[C@H]2[C@H]1F |  |
|  |  |  |  |  |  |  | 60 | 130 | CC(C)(C)C(=O)OCOP1(=O)/C=C/[C@H]2O[C@@H](n3cnc4c(N)ncnc43)[C@H](F)[C@@H]2OP(=O)(OCOC(=O)C(C)(C)C)OC[C@H]2O[C@@H](n3cnc4c(N)ncnc43)[C@H](F)[C@@H]2O1 (stereo in doubt; 11A) |  |
|  |  |  |  |  |  |  | 22 | 30 | CC(C)(C)C(=O)OCOP1(=O)/C=C/[C@H]2O[C@@H](n3cnc4c(N)ncnc43)[C@H](F)[C@@H]2OP(=O)(OCOC(=O)C(C)(C)C)OC[C@H]2O[C@@H](n3cnc4c(N)ncnc43)[C@H](F)[C@@H]2O1 (stereo in doubt; 11B) | EC50 ([10]; pbmc): 330 nM; EC50 ([11]; pbmc): 350 nM; EC50 ([12]; pbmc): 750 nM |
|  |  |  |  |  |  |  | 12 | 10 | CC(C)(C)C(=O)OCOP1(=O)/C=C/[C@H]2O[C@@H](n3cnc4c(N)ncnc43)[C@H](F)[C@@H]2OP(=O)(OCOC(=O)C(C)(C)C)OC[C@H]2O[C@@H](n3cnc4c(N)ncnc43)[C@H](F)[C@@H]2O1 (stereo in doubt; 11C) | half-life at 5 µM [13]: 49 min; EC50 ([10]; pbmc): 40 nM; EC50 ([11]; pbmc): 60 nM; EC50 ([12]; pbmc): 50 nM; half-life at 5 µM [14]: 4 min |
|  |  |  |  |  |  |  | 9500 | 7950 | CC(C)OC(=O)OCOP1(=O)/C=C/[C@H]2O[C@@H](n3cnc4c(N)ncnc43)[C@H](F)[C@@H]2OP(=O)(OCOC(=O)OC(C)C)OC[C@H]2O[C@@H](n3cnc4c(N)ncnc43)[C@H](F)[C@@H]2O1 (stereo in doubt; 12A) |  |
|  |  |  |  |  |  |  | 1250 | 2630 | CC(C)OC(=O)OCOP1(=O)/C=C/[C@H]2O[C@@H](n3cnc4c(N)ncnc43)[C@H](F)[C@@H]2OP(=O)(OCOC(=O)OC(C)C)OC[C@H]2O[C@@H](n3cnc4c(N)ncnc43)[C@H](F)[C@@H]2O1 (stereo in doubt; 12B) |  |
|  |  |  |  |  |  |  | 70 | 250 | CC(C)OC(=O)OCOP1(=O)/C=C/[C@H]2O[C@@H](n3cnc4c(N)ncnc43)[C@H](F)[C@@H]2OP(=O)(OCOC(=O)OC(C)C)OC[C@H]2O[C@@H](n3cnc4c(N)ncnc43)[C@H](F)[C@@H]2O1 (stereo in doubt; 12C) | EC50 ([10]; Homo sapiens, PBMC): 250 nM; EC50 ([11]; Homo sapiens, PBMC): 600 nM; EC50 ([12]; Homo sapiens, PBMC): 1300 nM |
|  |  |  |  |  |  |  | 150 | 450 | CCC(C)(C)C(=O)OCOP1(=O)/C=C/[C@H]2O[C@@H](n3cnc4c(N)ncnc43)[C@H](F)[C@@H]2OP(=O)(OCOC(=O)C(C)(C)CC)OC[C@H]2O[C@@H](n3cnc4c(N)ncnc43)[C@H](F)[C@@H]2O1 (stereo in doubt; 13A) |  |
|  |  |  |  |  |  |  | 14 | 35 | CCC(C)(C)C(=O)OCOP1(=O)/C=C/[C@H]2O[C@@H](n3cnc4c(N)ncnc43)[C@H](F)[C@@H]2OP(=O)(OCOC(=O)C(C)(C)CC)OC[C@H]2O[C@@H](n3cnc4c(N)ncnc43)[C@H](F)[C@@H]2O1 (stereo in doubt; 13B) |  |
|  |  |  |  |  |  |  | 7 | 35 | CCC(C)(C)C(=O)OCOP1(=O)/C=C/[C@H]2O[C@@H](n3cnc4c(N)ncnc43)[C@H](F)[C@@H]2OP(=O)(OCOC(=O)C(C)(C)CC)OC[C@H]2O[C@@H](n3cnc4c(N)ncnc43)[C@H](F)[C@@H]2O1 (stereo in doubt; 13C) | half-life at 5 µM [13]: 86 min; EC50 ([10]; Homo sapiens, PBMC): 120 nM; EC50 ([11]; Homo sapiens, PBMC): 60 nM; EC50 ([12]; Homo sapiens, PBMC): 20 nM; half-life at 5 µM [14]: 4 min |
|  |  |  |  |  |  |  | 20 | 350 | CCCCCCCC(=O)OCOP1(=O)/C=C/[C@H]2O[C@@H](n3cnc4c(N)ncnc43)[C@H](F)[C@@H]2OP(=O)(OCOC(=O)CCCCCCC)OC[C@H]2O[C@@H](n3cnc4c(N)ncnc43)[C@H](F)[C@@H]2O1 (stereo in doubt; 15A) |  |
|  |  |  |  |  |  |  | 3 | 4 | CCCCCCCC(=O)OCOP1(=O)/C=C/[C@H]2O[C@@H](n3cnc4c(N)ncnc43)[C@H](F)[C@@H]2OP(=O)(OCOC(=O)CCCCCCC)OC[C@H]2O[C@@H](n3cnc4c(N)ncnc43)[C@H](F)[C@@H]2O1 (stereo in doubt; 15B) | EC50 ([10]; pbmc): 70 nM; EC50 ([11]; Homo sapiens, PBMC): 80 nM; EC50 ([12]; pbmc): 60 nM |
|  |  |  |  |  |  |  | 3 | 5 | CCCCCCCC(=O)OCOP1(=O)/C=C/[C@H]2O[C@@H](n3cnc4c(N)ncnc43)[C@H](F)[C@@H]2OP(=O)(OCOC(=O)CCCCCCC)OC[C@H]2O[C@@H](n3cnc4c(N)ncnc43)[C@H](F)[C@@H]2O1 (stereo in doubt; 15C) | half-life at 5 µM [13]: 19 min; EC50 ([10]; pbmc): 280 nM; EC50 ([11]; pbmc): 120 nM; EC50 ([12]; pbmc): 170 nM; half-life at 5 µM [14]: 3 min |
|  |  |  |  |  |  |  | 12100 | 9930 | CC(C)(C)C(=O)OCOP1(=O)/C=C/[C@H]2O[C@@H](n3cnc4c(N)ncnc43)C[C@@H]2OP(=O)(OCOC(=O)C(C)(C)C)OC[C@H]2O[C@@H](n3cnc4c(N)ncnc43)[C@H](F)[C@@H]2O1 (stereo in doubt; 24A) |  |
|  |  |  |  |  |  |  | 675 | 550 | CC(C)(C)C(=O)OCOP1(=O)/C=C/[C@H]2O[C@@H](n3cnc4c(N)ncnc43)C[C@@H]2OP(=O)(OCOC(=O)C(C)(C)C)OC[C@H]2O[C@@H](n3cnc4c(N)ncnc43)[C@H](F)[C@@H]2O1 (stereo in doubt; 24B) |  |
|  |  |  |  |  |  |  | 260 | 210 | CC(C)(C)C(=O)OCOP1(=O)/C=C/[C@H]2O[C@@H](n3cnc4c(N)ncnc43)C[C@@H]2OP(=O)(OCOC(=O)C(C)(C)C)OC[C@H]2O[C@@H](n3cnc4c(N)ncnc43)[C@H](F)[C@@H]2O1 (stereo in doubt; 24C) |  |

| SMILES | EC50 [1] [nM] | EC50 [2] [nM] | EC50 [3] [nM] | EC50 [4] [nM] | ΔTm [5] [°C] | EC50 [6] [nM] | ΔTm [7] [°C] | EC50 [8] [nM] | EC50 [9] [nM] | other results |
| --- | --- | --- | --- | --- | --- | --- | --- | --- | --- | --- |
| CC1(C(=O)OCOP2(=O)/C=C/[C@H]3O[C@@H](n4cnc5c(N)ncnc54)[C@H](F)[C@@H]3OP(=O)(OCOC(=O)C3(C)CCCCC3)OC[C@H]3O[C@@H](n4cnc5c(N)ncnc54)[C@H](F)[C@@H]3O2)CCCCC1 (stereo in doubt; 14A) |  |  |  |  |  |  |  | 250 | 500 |  |
| CC1(C(=O)OCOP2(=O)/C=C/[C@H]3O[C@@H](n4cnc5c(N)ncnc54)[C@H](F)[C@@H]3OP(=O)(OCOC(=O)C3(C)CCCCC3)OC[C@H]3O[C@@H](n4cnc5c(N)ncnc54)[C@H](F)[C@@H]3O2)CCCCC1 (stereo in doubt; 14B) |  |  |  |  |  |  |  | 80 | 225 | EC50 ([10]; pbmc): 140 nM; EC50 ([11]; pbmc): 300 nM; EC50 ([12]; pbmc): 250 nM |
